For the test, the system named is TGGCTT (5'-biotin labeled hairpin DNA) (DNA, hairpin) CCTTGGCTTCTTTTGAAGCCAAGG
Nature of the test: SPR, global kinetic 1:1 fit. To be noted: 50 mM Na+ (NaCl); 10 mM HEPES, 1 mM EDTA, 0.05% P20, pH 7.4, 25 °C. In general terms: In SPR one partner is held on a chip, and binding of the other changes the refractive index at the surface.

We go through one molecule from PMC3567211 (2012).

Regarding `CN(C)CCCNC(=O)CCNC(=O)c1cc(NC(=O)c2cc(NC(=O)c3nc(NC(=O)c4cc(NC(=O)CCCNC(=O)c5cc(NC(=O)c6cc(NC(=O)c7nc(NC(=O)c8nccn8C)cn7C)cn6C)cn5C)cn4C)cn3C)cn2C)cn1C`, the KA is 37 ± 7 × 10^8 M^-1.
